Article PMC12832182 (Science (New York, N.Y.), 2025)

Target: T1, non-Cathepsin L-processed, but self-cleaved enzyme (LyLAP) (Homo sapiens, UniProt Q6P4A8)
T1 sequence (Q6P4A8 39-227): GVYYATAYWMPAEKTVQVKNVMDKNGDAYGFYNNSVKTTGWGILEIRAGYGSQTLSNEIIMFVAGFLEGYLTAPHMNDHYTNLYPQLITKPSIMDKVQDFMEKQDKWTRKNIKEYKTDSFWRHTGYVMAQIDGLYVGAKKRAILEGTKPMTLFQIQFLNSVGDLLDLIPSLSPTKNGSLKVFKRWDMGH
T1 sequence (Q6P4A8 228-553): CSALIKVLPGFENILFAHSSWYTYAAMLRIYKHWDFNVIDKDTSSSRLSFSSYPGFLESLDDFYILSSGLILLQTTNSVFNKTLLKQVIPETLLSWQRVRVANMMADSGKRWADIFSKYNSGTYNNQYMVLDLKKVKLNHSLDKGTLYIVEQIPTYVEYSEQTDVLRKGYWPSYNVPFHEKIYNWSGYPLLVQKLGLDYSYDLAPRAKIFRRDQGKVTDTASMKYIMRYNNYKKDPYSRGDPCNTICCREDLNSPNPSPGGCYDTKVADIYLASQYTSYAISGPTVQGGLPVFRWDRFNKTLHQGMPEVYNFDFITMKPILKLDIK
Test: fluorogenic AMC release
Format: biochemical
Conditions: lysosomal pH buffer pH 4.5, 37°C; without cathepsin L preactivation

Cc1cc(=O)oc2cc(NC(=O)[C@@H](N)CC(C)C)ccc12 [Leu-AMC, L-Leucine-7-amido-4-methylcoumarin]
fluorogenic AMC release: increased catalysis toward single amino acid substrates and, more substantially, toward tripeptide substrates
